Experimental data as given in patent publication US4759929A, “Novel treatment” (Cabinet Harle & Phelip, priority 1987, dated 1988).

Assays:
[1] = target: T1, LAV purified reverse transcriptase (Human immunodeficiency virus type 1 group M subtype B, UniProt P03367); assay: Lineweaver-Burk kinetics, varying poly A oligo dT12-18 template primer concentration; assay type: biochemical, Lymphadenopathy associated virus (LAV); settings: for HPA23 inhibition: LAV purified RT, FIG. 1 legend
T1 construct: made in house
Protocol: The results of the Lineweaver-Burk plots of the effects of varying concentration of poly An oligo dT12-18 at two different HPA23 concentrations are summarized in FIG. 1. In the experimental conditions, kinetic enzymatic parameters are: KM=2.18 nM of polyA oligo dT, Vmax=0.02 pM of 3 HTMP incorporated sec^-1. […] The interaction of HPA23 with the template primer-enzyme complex should take place at the binding site of the template primer.
Lineweaver-Burk representation of the influence of poly A oligo T12-18 template concentration on the inhibition by HPA23 of LAV purified reverse transcriptase
A: picomoles of ^3 H TMP incorporated in five minutes at 37° C.
B: template primer concentration (OD ml^-1)
: control (no inhibition)
: inhibition dose corresponds to 65 percent HPA23 inhibition (19 μg/ml)
inhibition dose corresponds to 80 percent HPA23 inhibition (40 μg/ml)
Each plot-point is the mean of three experiments.

AIDS or related syndrome = assay: Clinical features after HPA23 treatment; assay type: in vivo, human
T4 + Lymphocytes = assay: T4+ lymphocytes number in treated patients; assay type: in vivo, human; settings: four patients; after therapy
LAV = assay: Isolation of LAV from peripheral blood T cell cultures and cocultures of treated patients (RT activity in supernatant)
β DNA polymerase = β DNA polymerase (Mus musculus, UniProt Q8K409); settings: cited from earlier work
pancreatic RNase = pancreatic RNase (Bos taurus, UniProt P61823); assay: Inhibition of pancreatic RNase (unpublished results); assay type: biochemical
pancreatic DNase = pancreatic DNase (Bos taurus, UniProt P00639); assay: Inhibition of pancreatic DNase (unpublished results); assay type: biochemical
[2] = tested on: mammalian cellular DNA polymerases; settings: known; cited from earlier work
[3] = target: SAIDS virus reverse transcriptase (Simian retrovirus SRV-1, UniProt P04025); assay: Reverse transcriptase assay, SAIDS virus; assay type: biochemical, Simian AIDS (SAIDS) virus; settings: for Percent inhibition / p. mole incorporated: SAIDS virus; for p. mole incorporated: control 0.43
Protocol: Simian AIDS (SAIDS) virus producing cells were provided by Murray Gardner, M.D. and supernatants of cell cultures were concentrated using polyethylene glycol (PEG) 10 percent precipitation. The precipitate was purified on a 20 to 60 percent sucrose gradient (50,000 g, 2.5 hours). Reverse transcriptase assays (see legend Table I) were performed on each fraction from the collected gradient. Maximum RT activity was found at a density of 1.18.
(§1) Assay mixtures are indicated in the legend of Table I. The reaction was stopped by treating the mixtures with sodium pyrophosphate and trichloracetic acid. The results are given as picomoles of tritiated deoxyribonucleotides monophosphate incorporated into DNA after 1 hour at 37° C.
(§2) HPA 23 inhibition of reverse transcriptase of SAIDS virus and LAV.
(§3) Reaction mixture (50 μl) contains: Tris 50 mM pH 7.9, 5 mM MgCl2,
(§4) OD/ml Oligo dT 12-18, and 200 pM ^3 HTTP (25 Ci/mM).

E. Coli RNase H = E. Coli RNase H (Escherichia coli, UniProt P0A7Y4); assay: Inhibition of E. Coli RNase H (unpublished results); assay type: biochemical
[4] = tested on: MLV reverse transcriptase; settings: previously described; cited from earlier work
E. Coli DNA polymerases = settings: known; cited from earlier work
E. Coli RNA polymerases = E. Coli RNA polymerases (Escherichia coli, UniProt P0A8T7+P0A8V2); settings: known; cited from earlier work
mouse α DNA polymerase = mouse α DNA polymerase (Mus musculus, UniProt P33609); settings: required doses much higher than those inhibiting reverse transcriptase; cited from earlier work
[5] = tested on: lymphatic choriomeningitis virus; settings: adult mice acutely infected; cited from earlier work
[6] = target: T2, LAV reverse transcriptase (Human immunodeficiency virus type 1 group M subtype B, UniProt P03367); assay: Reverse transcriptase assay, LAV virus (non purified RT); assay type: biochemical, Lymphadenopathy associated virus (LAV); settings: for ID50: LAV virus (non purified RT), 1 hour at 37° C.; for Percent inhibition / p. mole incorporated: LAV virus; for p. mole incorporated: control 0.13
T2 construct: made in house; host or cells: LAV virions, PEG concentrated and sucrose gradient purified
Protocol: Lymphadenopathy associated virus (LAV) was purified. Briefly, after clarification, the virus was concentrated by PEG (10 percent), and then centrifuged for 1.5 hours at 55,000 g (IEC type SB 498 rotor) on a 10 to 60 percent sucrose gradient. Reverse transcriptase assays were performed on each fraction and the maximum RT activity was found at a density of 1.16 and corresponded to the purified virus fraction.
as §1, §2, §3, §4

[7] = tested on: Friend viruses and the plasma variant of Chirigos virus; settings: in vivo; cited from earlier work
[8] = Pharmacokinetic studies in patient, I.V bolus infusion; assay type: in vivo, human; settings: patient 1; I.V bolus infusion (about two minutes)
[9] = tested on: spontaneous mammary tumors; settings: C3 HBi mice; cited from earlier work

Chain of SAIDS virus reverse transcriptase (P04025 913-1497): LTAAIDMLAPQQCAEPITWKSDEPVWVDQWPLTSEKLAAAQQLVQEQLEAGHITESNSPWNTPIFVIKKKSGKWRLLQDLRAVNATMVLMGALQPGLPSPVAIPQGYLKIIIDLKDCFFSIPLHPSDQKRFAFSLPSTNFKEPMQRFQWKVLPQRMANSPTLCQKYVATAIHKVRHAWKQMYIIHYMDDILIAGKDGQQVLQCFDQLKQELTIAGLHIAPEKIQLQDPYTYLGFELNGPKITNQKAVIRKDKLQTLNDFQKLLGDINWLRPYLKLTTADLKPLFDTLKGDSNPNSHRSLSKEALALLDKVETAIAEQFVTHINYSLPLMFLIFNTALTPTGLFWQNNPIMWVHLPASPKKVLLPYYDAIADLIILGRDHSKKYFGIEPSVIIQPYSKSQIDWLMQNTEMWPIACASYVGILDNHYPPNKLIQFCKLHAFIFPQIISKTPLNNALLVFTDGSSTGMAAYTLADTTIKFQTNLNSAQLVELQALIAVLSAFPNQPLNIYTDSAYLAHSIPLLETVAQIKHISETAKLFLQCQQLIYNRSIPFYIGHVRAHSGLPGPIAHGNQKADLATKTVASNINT
Chain of E. Coli RNA polymerases (P0A8V2 whole entry): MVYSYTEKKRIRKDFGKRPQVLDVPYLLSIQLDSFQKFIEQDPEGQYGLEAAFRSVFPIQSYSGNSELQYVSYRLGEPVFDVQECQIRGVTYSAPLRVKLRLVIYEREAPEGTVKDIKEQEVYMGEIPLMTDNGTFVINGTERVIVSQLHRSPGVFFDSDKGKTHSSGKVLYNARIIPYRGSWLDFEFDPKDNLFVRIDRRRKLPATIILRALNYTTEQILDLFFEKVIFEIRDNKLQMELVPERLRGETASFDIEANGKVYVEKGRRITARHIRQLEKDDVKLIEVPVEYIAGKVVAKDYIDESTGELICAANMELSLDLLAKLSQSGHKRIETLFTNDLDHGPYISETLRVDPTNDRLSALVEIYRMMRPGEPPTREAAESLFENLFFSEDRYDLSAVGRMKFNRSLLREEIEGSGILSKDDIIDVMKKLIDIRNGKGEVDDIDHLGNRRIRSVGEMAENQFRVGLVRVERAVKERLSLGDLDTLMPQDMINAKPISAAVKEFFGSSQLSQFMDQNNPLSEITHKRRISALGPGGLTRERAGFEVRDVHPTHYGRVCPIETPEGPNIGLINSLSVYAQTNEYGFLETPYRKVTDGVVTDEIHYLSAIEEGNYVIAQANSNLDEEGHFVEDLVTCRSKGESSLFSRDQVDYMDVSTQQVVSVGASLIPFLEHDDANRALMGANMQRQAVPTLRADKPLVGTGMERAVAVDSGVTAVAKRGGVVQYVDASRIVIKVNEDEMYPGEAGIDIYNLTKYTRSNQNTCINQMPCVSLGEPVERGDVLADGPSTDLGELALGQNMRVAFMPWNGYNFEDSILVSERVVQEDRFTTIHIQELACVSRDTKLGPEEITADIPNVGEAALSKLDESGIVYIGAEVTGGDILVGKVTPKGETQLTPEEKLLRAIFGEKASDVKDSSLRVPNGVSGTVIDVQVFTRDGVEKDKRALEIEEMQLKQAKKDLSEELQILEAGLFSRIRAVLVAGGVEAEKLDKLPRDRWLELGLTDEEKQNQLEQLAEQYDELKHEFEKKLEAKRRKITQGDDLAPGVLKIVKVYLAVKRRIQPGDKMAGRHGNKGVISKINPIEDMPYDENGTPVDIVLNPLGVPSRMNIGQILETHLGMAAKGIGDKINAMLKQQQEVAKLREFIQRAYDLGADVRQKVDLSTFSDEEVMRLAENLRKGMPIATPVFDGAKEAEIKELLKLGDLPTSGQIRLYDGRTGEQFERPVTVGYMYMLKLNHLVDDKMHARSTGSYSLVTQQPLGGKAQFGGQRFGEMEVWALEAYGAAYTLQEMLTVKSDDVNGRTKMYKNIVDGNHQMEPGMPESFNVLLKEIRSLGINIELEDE
Chain of E. Coli RNA polymerases (P0A8T7 whole entry): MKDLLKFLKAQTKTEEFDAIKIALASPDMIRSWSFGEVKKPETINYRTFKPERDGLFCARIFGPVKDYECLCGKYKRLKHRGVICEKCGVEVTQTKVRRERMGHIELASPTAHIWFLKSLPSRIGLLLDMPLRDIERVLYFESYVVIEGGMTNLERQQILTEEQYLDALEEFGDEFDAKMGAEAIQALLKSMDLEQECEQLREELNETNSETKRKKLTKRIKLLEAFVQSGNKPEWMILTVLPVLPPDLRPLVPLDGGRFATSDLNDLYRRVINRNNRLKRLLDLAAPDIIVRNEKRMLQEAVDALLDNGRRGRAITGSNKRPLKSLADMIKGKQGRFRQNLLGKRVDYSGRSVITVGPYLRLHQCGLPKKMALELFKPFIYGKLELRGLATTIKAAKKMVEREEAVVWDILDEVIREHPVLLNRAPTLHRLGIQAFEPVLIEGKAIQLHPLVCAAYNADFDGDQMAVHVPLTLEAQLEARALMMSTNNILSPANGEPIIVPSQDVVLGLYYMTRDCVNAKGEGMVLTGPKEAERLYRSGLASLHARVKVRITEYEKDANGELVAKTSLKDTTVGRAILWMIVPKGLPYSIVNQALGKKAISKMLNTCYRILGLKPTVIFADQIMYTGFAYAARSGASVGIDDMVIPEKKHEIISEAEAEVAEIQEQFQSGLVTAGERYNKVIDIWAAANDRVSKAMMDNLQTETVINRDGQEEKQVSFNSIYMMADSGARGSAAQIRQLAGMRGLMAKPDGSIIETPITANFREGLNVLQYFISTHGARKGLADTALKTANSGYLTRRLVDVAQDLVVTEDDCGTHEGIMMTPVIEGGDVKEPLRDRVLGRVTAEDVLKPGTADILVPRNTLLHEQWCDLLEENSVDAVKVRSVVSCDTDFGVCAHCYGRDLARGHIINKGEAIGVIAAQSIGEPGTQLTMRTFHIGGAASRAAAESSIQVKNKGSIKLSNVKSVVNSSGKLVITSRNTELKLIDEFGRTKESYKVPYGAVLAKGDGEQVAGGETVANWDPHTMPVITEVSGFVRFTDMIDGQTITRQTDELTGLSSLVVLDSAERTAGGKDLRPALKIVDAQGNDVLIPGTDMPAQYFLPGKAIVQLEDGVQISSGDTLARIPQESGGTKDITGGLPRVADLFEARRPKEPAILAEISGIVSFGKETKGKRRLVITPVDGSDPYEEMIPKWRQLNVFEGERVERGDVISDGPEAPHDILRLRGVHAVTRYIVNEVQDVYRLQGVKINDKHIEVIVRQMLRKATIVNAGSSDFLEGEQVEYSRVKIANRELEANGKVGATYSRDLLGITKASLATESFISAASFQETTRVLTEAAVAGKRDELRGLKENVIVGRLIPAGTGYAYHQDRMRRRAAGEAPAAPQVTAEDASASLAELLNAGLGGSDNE
Chain of E. Coli RNA polymerases (P0A7Z4 whole entry partner): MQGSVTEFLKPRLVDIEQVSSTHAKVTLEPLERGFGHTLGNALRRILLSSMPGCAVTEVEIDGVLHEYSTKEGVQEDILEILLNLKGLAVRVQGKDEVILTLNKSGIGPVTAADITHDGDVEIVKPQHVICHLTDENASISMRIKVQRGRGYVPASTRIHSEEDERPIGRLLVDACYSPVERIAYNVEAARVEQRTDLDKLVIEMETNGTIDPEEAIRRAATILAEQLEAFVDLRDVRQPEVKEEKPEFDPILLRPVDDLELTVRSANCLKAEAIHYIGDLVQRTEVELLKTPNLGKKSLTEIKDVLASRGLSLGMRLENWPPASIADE
Chain of E. Coli RNA polymerases (P0A800 whole entry partner): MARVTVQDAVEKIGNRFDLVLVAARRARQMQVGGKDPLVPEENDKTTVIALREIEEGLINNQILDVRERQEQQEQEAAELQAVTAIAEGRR
Chain of E. Coli RNase H (P0A7Y4 whole entry): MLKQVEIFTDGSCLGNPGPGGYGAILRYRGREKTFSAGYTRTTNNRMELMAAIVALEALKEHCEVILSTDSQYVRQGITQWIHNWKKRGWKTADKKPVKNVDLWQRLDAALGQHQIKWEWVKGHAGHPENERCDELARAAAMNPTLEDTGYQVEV
Chain of pancreatic DNase (P00639 23-282): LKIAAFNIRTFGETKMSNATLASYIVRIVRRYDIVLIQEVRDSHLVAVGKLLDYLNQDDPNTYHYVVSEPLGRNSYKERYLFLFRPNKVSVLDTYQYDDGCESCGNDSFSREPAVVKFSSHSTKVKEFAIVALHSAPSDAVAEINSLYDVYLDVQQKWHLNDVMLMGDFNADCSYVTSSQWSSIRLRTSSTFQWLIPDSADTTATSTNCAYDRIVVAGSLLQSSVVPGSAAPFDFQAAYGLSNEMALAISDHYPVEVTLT
Chain of pancreatic RNase (P61823 27-150): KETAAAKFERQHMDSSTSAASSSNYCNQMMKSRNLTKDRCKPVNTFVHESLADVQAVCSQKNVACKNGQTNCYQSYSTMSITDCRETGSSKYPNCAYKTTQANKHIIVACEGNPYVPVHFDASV

Ammonium-9-antimonio-III-21-tungsto-VII-sodate [HPA 23]
inhibition mechanism ([1]; LAV RT, versus template primer poly A oligo dT12-18): competitive inhibition | HPA23 inhibition ([1]; 19 μg/ml): 65% | HPA23 inhibition ([1]; 40 μg/ml): 80% | Kaposi's sarcoma evolution (AIDS or related syndrome; patient 3, 4 months outcome): stabilized their mucosal evolutive K.S., without regression | opportunistic infections (AIDS or related syndrome; patient one, one year after the end of HPA23 therapy): did not present anymore other opportunistic infections | absolute numbers of T4 + cells and T4 /T8 ratio (T4 + Lymphocytes): did not change significantly | LAV detection in T cell cultures (LAV; patient 1, during each period of treatment, I.V bolus, 1 mg/kg to 3.3 mg/kg): LAV could no longer be detected | LAV isolation, even after cocultivation (LAV; patients 1 and 2, one month after the end of the treatment): LAV was not isolated | LAV detection in T cell cocultures (LAV; patients 2, 3 and 4, 30 days after the end of the treatment): LAV was again detected in the T cell cocultures in two of the three patients (3 and 4) at a very low level | LAV isolation from primary cultures and cocultures of patient T cells (LAV; patients 2, 3 and 4, following two weeks treatment, 200 mg IV infusion per day during 15 days): no virus (LAV) was isolated | effect on β DNA polymerase (β DNA polymerase): without any effect | inhibition of pancreatic RNase (pancreatic RNase): does not inhibit | inhibition of pancreatic DNase (pancreatic DNase): does not inhibit | inhibition of mammalian cellular DNA polymerases [2]: strong inhibitor | inhibition mechanism ([3]; SAIDS (monkey) virus enzyme, kinetic studies): competitive inhibition | ID50 ([3]; SAIDS virus RT, 1 hour at 37° C.): 1.1 µg/mL | Percent inhibition ([3]; inhibitor 0.5 μg/ml): 21% | p. mole incorporated ([3]; inhibitor 0.5 μg/ml): 0.34 p. mole | Percent inhibition ([3]; inhibitor 1 μg/ml): 35% | p. mole incorporated ([3]; inhibitor 1 μg/ml): 0.28 p. mole | Percent inhibition ([3]; inhibitor 2.5 μg/ml): 80% | p. mole incorporated ([3]; inhibitor 2.5 μg/ml): 0.09 p. mole | Percent inhibition ([3]; inhibitor 5 μg/ml): 94.5% | p. mole incorporated ([3]; inhibitor 5 μg/ml): 0.024 p. mole | Percent inhibition ([3]; inhibitor 10 μg/ml): 99.5% | p. mole incorporated ([3]; inhibitor 10 μg/ml): 0.0025 p. mole | Percent inhibition ([3]; inhibitor 25 μg/ml): 100% | p. mole incorporated ([3]; inhibitor 25 μg/ml): 0 p. mole | inhibition of E. Coli RNase H (E. Coli RNase H): does not inhibit | inhibition of MLV reverse transcriptase [4]: competitive inhibitor | inhibition of E. Coli DNA polymerases (E. Coli DNA polymerases): strong inhibitor | inhibition of E. Coli RNA polymerases (E. Coli RNA polymerases): strong inhibitor | inhibition of mouse α DNA polymerase (mouse α DNA polymerase): inhibitor | mortality [5]: reduces the mortality | recovery of the platelet count to the pretreatment value (each adult patient): between 21st day and the 45th day after | platelet toxicity (four patients): some platelet toxicity in three out of four cases | renal toxicity (four patients): No new renal toxicity was observed | recovery of hepatic transaminases to the pretreatment range (patients 2, 3 and 4): ≤ 21 days | elevations of the hepatic transaminases (patients 2, 3 and 4 during treatment): 2 ×normal value | ID50 ([6]; 60 min): 30.5 µg/mL | ID50 ([6]; listed as HPA23, 60 min): 30 µg/mL | Percent inhibition ([6]; inhibitor 10 μg/ml): 2.4% | p. mole incorporated ([6]; inhibitor 10 μg/ml): 0.127 p. mole | Percent inhibition ([6]; inhibitor 25 μg/ml): 18.6% | p. mole incorporated ([6]; inhibitor 25 μg/ml): 0.013 p. mole | Percent inhibition ([6]; inhibitor 50 μg/ml): 84.4% | p. mole incorporated ([6]; inhibitor 50 μg/ml): 0.098 p. mole | Percent inhibition ([6]; inhibitor 60 μg/ml): 100% | p. mole incorporated ([6]; inhibitor 60 μg/ml): 0 p. mole | protection against leukemia [7]: protects | half life [8]: < 20 min | occurrence of spontaneous mammary tumors [9]: reduces the occurance of spontaneous mammary tumors
